Experimental data reported in ChEMBL document CHEMBL5370616, “Novel Nitric Oxide Donor-Azole Conjugation Strategy for Efficient Treatment of Cryptococcus neoformans Infections” (J Med Chem, 2023).
In brackets after ≈: the same amount, converted by molar mass. Activity calls are given as the source filed them. The rule behind the calls is not given here.

Columns and labels:
[1] = system: Cryptococcus neoformans; assay: Inhibition of biofilm formation in Cryptococcus neoformans H99 at 16 to 64 ug/ml incubated for 24 hrs by XTT reduction assay; type: functional, organism-based; details: dose 16-64 µg/ml
[2] = system: Candida albicans; assay: Antifungal activity against Candida albicans SC5314 assessed as reduction in fungal growth incubated for 48 hrs by CLSI protocol based microplate reader analysis; type: functional
[3] = system: Nakaseomyces glabratus; assay: Antifungal activity against Candida glabrata 10639 assessed as reduction in fungal growth incubated for 48 hrs by CLSI protocol based microplate reader analysis; type: functional
[4] = system: Cryptococcus neoformans; assay: Antifungal activity against Cryptococcus neoformans H99 assessed as reduction in fungal growth incubated for 72 hrs by CLSI protocol based microplate reader analysis; type: functional
[5] = system: Candida albicans; assay: Antifungal activity against Candida albicans 0304103 assessed as reduction in fungal growth incubated for 48 hrs by CLSI protocol based microplate reader analysis; type: functional

| SMILES | MIC80 [2] [µg/mL] | MIC80 [3] [µg/mL] | MIC80 [4] [µg/mL] | MIC80 [5] [µg/mL] | inhibition [1] |
| --- | --- | --- | --- | --- | --- |
| CC1(C)N(O)C(c2ccccc2)=[N+]([O-])C1(C)C | – | – | – | – | inactive |
| CN(Cc1ccc(OCCCOc2ccc(CC(=O)NCCOc3no[n+]([O-])c3S(=O)(=O)c3ccccc3)cc2)cc1)CC(O)(Cn1cncn1)c1ccc(F)cc1F (stereo not given) | 2 (≈ 2.4 µM) | 1 (≈ 1.2 µM) | 1 (≈ 1.2 µM) | > 64 | – |
| CN(Cc1ccc(OCCCOc2ccc(CC(=O)OCCCCOc3no[n+]([O-])c3S(=O)(=O)c3ccccc3)cc2)cc1)CC(O)(Cn1cncn1)c1ccc(F)cc1F (stereo not given) | 4 (≈ 4.64 µM) | 4 (≈ 4.64 µM) | 4 (≈ 4.64 µM) | > 64 | – |
| CN(Cc1ccc(OCCCOc2ccc(CC(=O)OCCCCCO[N+](=O)[O-])cc2)cc1)CC(O)(Cn1cncn1)c1ccc(F)cc1F (stereo not given) | 1 (≈ 1.43 µM) | 0.5 (≈ 0.717 µM) | 0.5 (≈ 0.717 µM) | > 64 | – |
| CN(Cc1ccc(OCCCOc2ccc(CC(=O)OCCCCCOc3no[n+]([O-])c3S(=O)(=O)c3ccccc3)cc2)cc1)CC(O)(Cn1cncn1)c1ccc(F)cc1F (stereo not given) | 4 (≈ 4.56 µM) | 4 (≈ 4.56 µM) | 4 (≈ 4.56 µM) | > 64 | – |
| CN(Cc1ccc(OCCCOc2ccc(CC(=O)OCCCCCCOc3no[n+]([O-])c3S(=O)(=O)c3ccccc3)cc2)cc1)CC(O)(Cn1cncn1)c1ccc(F)cc1F (stereo not given) | 8 (≈ 8.98 µM) | 4 (≈ 4.49 µM) | 4 (≈ 4.49 µM) | > 64 | – |
| CN(CC(O)(Cn1cncn1)c1ccc(F)cc1F)c1cc(O/N=[N+](\[O-])N2CCCC2)c([N+](=O)[O-])cc1[N+](=O)[O-] (stereo not given) | > 64 | > 64 | 64 (≈ 114 µM) | > 64 | – |
| CN(Cc1ccc(OCCCOc2ccc(CC(=O)OCCOCCOc3no[n+]([O-])c3S(=O)(=O)c3ccccc3)cc2)cc1)CC(O)(Cn1cncn1)c1ccc(F)cc1F (stereo not given) | 1 (≈ 1.14 µM) | 1 (≈ 1.14 µM) | 1 (≈ 1.14 µM) | > 64 | – |

Further lines, with some results ahead:

| MIC80 [2] [µg/mL] | MIC80 [3] [µg/mL] | MIC80 [4] [µg/mL] | MIC80 [5] [µg/mL] | SMILES | inhibition [1] |
| --- | --- | --- | --- | --- | --- |
| > 64 | > 64 | 64 (≈ 108 µM) | > 64 | CN1CCN(/[N+]([O-])=N/Oc2cc(N(C)CC(O)(Cn3cncn3)c3ccc(F)cc3F)c([N+](=O)[O-])cc2[N+](=O)[O-])CC1 (stereo not given) | – |
| > 64 | > 64 | 64 (≈ 113 µM) | > 64 | CCN(CC)/[N+]([O-])=N/Oc1cc(N(C)CC(O)(Cn2cncn2)c2ccc(F)cc2F)c([N+](=O)[O-])cc1[N+](=O)[O-] (stereo not given) | – |
| 4 (≈ 5.41 µM) | 0.5 (≈ 0.676 µM) | 1 (≈ 1.35 µM) | 8 (≈ 10.8 µM) | CN(Cc1ccc(OCCCOc2ccc(CC(=O)O[C@H]3CO[C@H]4[C@@H]3OC[C@H]4O[N+](=O)[O-])cc2)cc1)CC(O)(Cn1cncn1)c1ccc(F)cc1F (stereo not given in full) | – |
| > 64 | > 64 | 64 (≈ 108 µM) | > 64 | CN(CC(O)(Cn1cncn1)c1ccc(F)cc1F)c1cc(O/N=[N+](\[O-])N2CCC[C@@H]2CO)c([N+](=O)[O-])cc1[N+](=O)[O-] (stereo not given in full) | – |
